Experimental data as given in patent US6358921B1, “Antimicrobial peptide compositions and method” (priority 1996, dated 2002).
Where two headings read alike, the source gives them in different places. Where a SMILES comes first, the peptide text is derived from it. [ ]: non-standard residue; d: D form. Orn = NCCC[C@H](N)C(=O)O

Legend:
E. coli DC2 = assay type: cell-based, Escherichia coli; details: for Antibiotic activity (Table 11, ring analogs): E. coli DC2, unit from Table 10
Method in brief: (§1)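 Minimum inhibitory concentrations come from a broth rather than agar assay, using LB medium, a final inoculum of 5×10^5 CFU/mL and overnight incubation at 37 °C. Values are in μg/ml.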

C. Albicans = assay type: cell-based, Candida albicans; details: C. Albicans
Method in brief: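 Growth inhibition was scored after overnight culture at 37 °C in LB with peptide serial dilutions (inoculum 5×10^5 CFU/mL); MICs were the lowest inhibitory concentrations. Test strains were E. coli UB1005 (wild type), C. xerosis (environmental), and C. albicans and S. epidermidis (clinical isolates).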

[1] = Displacement of dansyl-polymyxin from LPS; assay type: binding, P. aeruginosa
Method in brief: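 Peptides titrated into 3 μg/mL P. aeruginosa LPS with 2.5 μM dansyl-polymyxin (~90% site saturation) in 5 mM sodium HEPES, pH 7.0; fluorescence decrease recorded. I50 (50% probe displacement) taken from the x-intercept of a double-reciprocal plot of percent inhibition versus inhibitor concentration.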

E. coli SC9252 = experiment: MIC, liquid-broth microtitre dilution; assay type: cell-based, Escherichia coli; details: unit from Table 10
Text: (§2) The following bacterial strains were utilized: Escherichia coli UB1005 (wt) and its antibiotic supersusceptible derivative DC2 (Clark, 1984); Excherichia coli SC9251 and its polymixin B rasistant mutant pmrA SC9252 (Peterson, et al., 1987) Pseudomonas aeruginosa H187 (wt) (Angus, et al., 1987) and its antibiotic-sensitive derivative H188 (Zimmerman, W, Antimicrob. Agents Chemother. 18: 94-100, 1980); methicillin sensitive Staphylococcus aureus K147 (Kreiswirth, et al., 1983); Staphylococcus aureus SAP0017, a methicillin resistant clinical isolate from Dr. A. Chow (University of British Columia); Bacillus subtilis, an environmental wt lab strain. Enterococcus faecalis are ATCC 29212 cells and Staphylococcus epidermidis was a clinical isolate from Dr. D. Speert (University of British Columbia). Antifungal activity was tested using a clinical lab isolate of Candida albicans. Salmonella typhinurium C57 and C610 (Fields, P.I., et al., Science 243: 1059-1062 (1989) Corynebacterium xerosis was an environmental isolate (University of British Columbia).
(§3) It is now apparent that agar-based assays severely underestimate antifungal activity as well as activity against gram negative microorganisms (Kondejewski, et al., 1996). Consequently, in the studies reported herein, a liquid-broth method was used to measure the antibiotic properties of the peptides. […] Briefly, cells were grown overnight at 37° C. in LB and diluted in the same medium. Serial dilutions of antibiotics were added to the microtitre plates in a volume of 100 μL followed by 10 μL of bacteria to give a final inoculum of 5×10^5 CFU/mL. Plates were incubated at 37° C. overnight and MICs determined as the lowest antibiotic concentration that inhibited growth.

E. coli SC9251 = experiment: MIC, liquid-broth microtitre dilution; assay type: cell-based, Escherichia coli; details: unit from Table 10
Text: as §2, §3

E. coli UB1005 = assay type: cell-based, Escherichia coli; details: for Antibiotic activity (Table 11, ring analogs): E. coli UB1005, unit from Table 10
Method in brief: (§4)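 Antimicrobial activity is measured by a liquid-broth assay in LB at 37 °C overnight, starting from 5×10^5 CFU/mL. Values are minimal inhibitory concentrations, i.e. the lowest concentration that stops growth.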

P. aeruginosa H188 = assay type: cell-based, Pseudomonas aeruginosa; details: for Antibiotic activity (Table 11, ring analogs): P. aeruginosa H188, unit from Table 10
Method in brief: as §4

human erythrocytes = experiment: Hemolytic activity; assay type: cell-based
Method: Serial dilutions of the peptides in saline were prepared in round bottom microtitre plates using 100 μL volumes. Red blood cells were diluted with saline to 1/25 packed volume of cells and 50 μL added to each well. Plates were incubated with rocking at 37° C., and the concentration required for complete lysis determined visually after 4 h.

P. aeruginosa H187 = assay type: cell-based, Pseudomonas aeruginosa; details: for Antibiotic activity (Table 11, ring analogs): P. aeruginosa H187, unit from Table 10
Method in brief: as §1

S. typhinurium C587 = assay type: cell-based, Salmonella typhinurium
Method in brief: as §4

S. typhinurium C610 = assay type: cell-based, Salmonella typhinurium
Method in brief: as §4

[2] = test system: gram negative microorganisms; assay type: cell-based; details: for Antibiotic activity, gram-negative: average activity calculated from Table II
Text: as §2, §3
(§5) The results from antimicrobial and hemolytic assays are combined to provide a “Therapeutic Index” (TI) for each peptide with respect to individual microorganisms. As reported herein, the TI is calculated as the hemolytic activity divided by the antimicrobial activity. The TI thus is a measure of specificity of the particular peptide for microbial membranes as opposed to human blood cell membranes. In the present studies, antimicrobial activities are reported as minimum inhibitory concentrations (MIC)—the lowest concentration of peptide (μg/ml) found to inhibit growth of the particular microbe. Hemolytic activity is reported as the concentration of peptide that effected complete lysis of blood cells after four hours. Thus, in the context of the present invention high TI values indicate microbial specificity and relative lack of toxicity.

yeast = experiment: Antibiotic activity, yeast; assay type: cell-based; details: average activity calculated from Table II
Text: as §2, §3, §5

[3] = test system: gram positive microorganisms; assay type: cell-based; details: average activity calculated from Table II
Text: as §2, §3, §5

[4] = Table 10, read-out: LPS binding activity: peptide concentration to displace 50% of dansyl-polymyxin from LPS

## CC(C)C[C@@H]1NC(=O)[C@H](CCCN)NC(=O)[C@H](C(C)C)NC(=O)[C@@H]2CCCN2C(=O)[C@@H](Cc2ccccc2)NC(=O)[C@H](CC(C)C)NC(=O)[C@H](CCCN)NC(=O)[C@H](C(C)C)NC(=O)[C@@H]2CCCN2C(=O)[C@@H](Cc2ccccc2)NC1=O [GS, cyclo(Val-Orn-Leu-D-Phe-Pro)2, reference compound] (cyclo(V[Orn]L[dF]PV[Orn]L[dF]P))
E. coli DC2; DC2
  Minimum Inhibitory Concentration (activity): 3.1 µg/mL
E. coli DC2
  Antibiotic activity (Table 11, ring analogs): 9 μg/ml
C. Albicans
  Minimum Inhibitory Concentration (activity): 6.2 µg/mL
[1]; read-out: LPS binding affinity: peptide concentration to displace 50% of dansyl-polymyxin B from LPS, Tables 1, 4, 7
  IC50: 295 µM
E. coli SC9252
  Antibiotic activity (Table 11, ring analogs): 5 μg/ml
E. coli SC9251
  Antibiotic activity (Table 11, ring analogs): 13 μg/ml
E. coli UB1005
  Antibiotic activity (Table 11, ring analogs): 19 μg/ml
E. coli UB1005; UB1005
  Minimum Inhibitory Concentration (activity): 9 µg/mL
P. aeruginosa H188; H188
  Minimum Inhibitory Concentration (activity): 6.2 µg/mL
P. aeruginosa H188
  Antibiotic activity (Table 11, ring analogs): 16 μg/ml
Human erythrocytes
  Hemolytic activity: peptide concentration for 100% lysis of human erythrocytes: 12.5 µg/mL
P. aeruginosa H187; H187
  Minimum Inhibitory Concentration (activity): 25 µg/mL
P. aeruginosa H187
  Antibiotic activity (Table 11, ring analogs): 25 μg/ml
S. typhinurium C587
  Minimum Inhibitory Concentration (activity): 18 µg/mL
S. typhinurium C610
  Minimum Inhibitory Concentration (activity): 9 µg/mL
[2]
  MIC against gram-negative organisms, particularly E. coli and P. aeruginosa: 3 to 12.5 µg/mL

## CC(C)C[C@@H]1NC(=O)[C@H](CCCCN)NC(=O)[C@H](C(C)C)NC(=O)[C@@H]2CCCN2C(=O)[C@@H](Cc2ccccc2)NC(=O)[C@H](CC(C)C)NC(=O)[C@H](CCCCN)NC(=O)[C@H](C(C)C)NC(=O)[C@H](CCCCN)NC(=O)[C@@H]2CCCN2C(=O)[C@@H](Cc2ccccc2)NC(=O)[C@H](CCCCN)NC1=O [GS12F]
E. coli DC2
  Antibiotic activity (Table 11, ring analogs): 9 μg/ml
yeast
  Antibiotic activity, yeast: 13 µg/mL
[1]; [4]
  IC50: 127 µM
E. coli SC9252
  Antibiotic activity (Table 11, ring analogs): 14 μg/ml
E. coli SC9251
  Antibiotic activity (Table 11, ring analogs): 11 μg/ml
E. coli UB1005
  Antibiotic activity (Table 11, ring analogs): 17 μg/ml
P. aeruginosa H188
  Antibiotic activity (Table 11, ring analogs): 8 μg/ml
Human erythrocytes
  Hemolytic activity: 400 µg/mL
P. aeruginosa H187
  Antibiotic activity (Table 11, ring analogs): 38 μg/ml
[3]
  Antibiotic activity, gram-positive: 110 µg/mL
[2]
  Antibiotic activity, gram-negative: 16 µg/mL

## CC(C)C[C@@H]1NC(=O)[C@H](CCCN)NC(=O)[C@H](C(C)C)NC(=O)[C@@H]2CCCN2C(=O)[C@@H](Cc2ccccc2)NC(=O)[C@H](CC(C)C)NC(=O)[C@H](CCCN)NC(=O)[C@H](C(C)C)NC(=O)[C@H](CCCN)NC(=O)[C@@H]2CCCN2C(=O)[C@@H](Cc2ccccc2)NC(=O)[C@H](CCCN)NC1=O [GS12FO, FPVOLOFPOVOL] (cyclo(L[Orn][dF]P[Orn]V[Orn]L[dF]PV[Orn]))
E. coli DC2
  Antibiotic activity (Table 11, ring analogs): 5 μg/ml
yeast
  Antibiotic activity, yeast: 16 µg/mL
[1]; [4]
  IC50: 105 µM
E. coli SC9252
  Antibiotic activity (Table 11, ring analogs): 9 μg/ml
E. coli SC9251
  Antibiotic activity (Table 11, ring analogs): 6 μg/ml
E. coli UB1005
  Antibiotic activity (Table 11, ring analogs): 22 μg/ml
P. aeruginosa H188
  Antibiotic activity (Table 11, ring analogs): 5 μg/ml
Human erythrocytes
  Hemolytic activity: 160 µg/mL
P. aeruginosa H187
  Antibiotic activity (Table 11, ring analogs): 50 μg/ml
[3]
  Antibiotic activity, gram-positive: 120 µg/mL
[2]
  Antibiotic activity, gram-negative: 16 µg/mL

## CC(C)C[C@@H]1NC(=O)[C@H](CCCCN)NC(=O)[C@@H]2CCCN2C(=O)[C@@H](Cc2ccc(O)cc2)NC(=O)[C@H](CCCCN)NC(=O)[C@H](C(C)C)NC(=O)[C@H](CCCCN)NC(=O)[C@H](CC(C)C)NC(=O)[C@@H]2CCCN2C(=O)[C@@H](Cc2ccc(O)cc2)NC(=O)[C@H](C(C)C)NC(=O)[C@H](CCCCN)NC1=O [GS12LV]
E. coli DC2
  Antibiotic activity (Table 11, ring analogs): 14 μg/ml
yeast
  Antibiotic activity, yeast: 50 µg/mL
[1]; [4]
  IC50: 33 µM
E. coli SC9252
  Antibiotic activity (Table 11, ring analogs): 25 μg/ml
E. coli SC9251
  Antibiotic activity (Table 11, ring analogs): 22 μg/ml
E. coli UB1005
  Antibiotic activity (Table 11, ring analogs): 21 μg/ml
P. aeruginosa H188
  Antibiotic activity (Table 11, ring analogs): 10 μg/ml
Human erythrocytes
  Hemolytic activity: 92 µg/mL
P. aeruginosa H187
  Antibiotic activity (Table 11, ring analogs): 58 μg/ml
[3]
  Antibiotic activity, gram-positive: 240 µg/mL
[2]
  Antibiotic activity, gram-negative: 25 µg/mL

## CC(C)C[C@@H]1NC(=O)[C@H](CCCN)NC(=O)[C@H](CC(C)C)NC(=O)[C@@H]2CCCN2C(=O)[C@@H](Cc2ccccc2)NC(=O)[C@H](CC(C)C)NC(=O)[C@H](CCCN)NC(=O)[C@H](CC(C)C)NC(=O)[C@H](CCCN)NC(=O)[C@@H]2CCCN2C(=O)[C@@H](Cc2ccccc2)NC(=O)[C@H](CCCN)NC1=O [GS12FO/LL, FPLOLOFPOLOL] (cyclo(L[Orn]L[Orn][dF]P[Orn]L[Orn]L[dF]P))
E. coli DC2
  Antibiotic activity (Table 11, ring analogs): 5 μg/ml
yeast
  Antibiotic activity, yeast: 16 µg/mL
[1]; [4]
  IC50: 44 µM
E. coli SC9252
  Antibiotic activity (Table 11, ring analogs): 9 μg/ml
E. coli SC9251
  Antibiotic activity (Table 11, ring analogs): 8 μg/ml
E. coli UB1005
  Antibiotic activity (Table 11, ring analogs): 16 μg/ml
P. aeruginosa H188
  Antibiotic activity (Table 11, ring analogs): 8 μg/ml
Human erythrocytes
  Hemolytic activity: 170 µg/mL
P. aeruginosa H187
  Antibiotic activity (Table 11, ring analogs): 63 μg/ml
[3]
  Antibiotic activity, gram-positive: 42 µg/mL
[2]
  Antibiotic activity, gram-negative: 18 µg/mL

## CC(C)C[C@@H]1NC(=O)[C@H](CCCCN)NC(=O)[C@H](C(C)C)NC(=O)[C@@H]2CCCN2C(=O)[C@@H](Cc2ccc(O)cc2)NC(=O)[C@H](CC(C)C)NC(=O)[C@H](CCCCN)NC(=O)[C@H](C(C)C)NC(=O)[C@H](CCCCN)NC(=O)[C@@H]2CCCN2C(=O)[C@@H](Cc2ccc(O)cc2)NC(=O)[C@H](CCCCN)NC1=O [GS12]
E. coli DC2
  Antibiotic activity (Table 11, ring analogs): 11 μg/ml
yeast
  Antibiotic activity, yeast: 42 µg/mL
[1]; [4]
  IC50: 46 µM
[1]; addition of two positive charges
  Increase in LPS binding activity in comparison to shorter peptides: approximately 6 fold
E. coli SC9252
  Antibiotic activity (Table 11, ring analogs): 30 μg/ml
E. coli SC9251
  Antibiotic activity (Table 11, ring analogs): 42 μg/ml
E. coli UB1005
  Antibiotic activity (Table 11, ring analogs): 25 μg/ml
P. aeruginosa H188
  Antibiotic activity (Table 11, ring analogs): 10 μg/ml
Human erythrocytes
  Hemolytic activity: 250 µg/mL
P. aeruginosa H187
  Antibiotic activity (Table 11, ring analogs): 75 μg/ml
[3]
  Antibiotic activity, gram-positive: 240 µg/mL
[2]
  Antibiotic activity, gram-negative: 32 µg/mL
